Results taken from US10407422B2, “Triazolopyridine inhibitors of myeloperoxidase” (priority 2015, dated 2019).

Key:
myeloperoxidase (MPO) [1] = target: T1, myeloperoxidase (MPO) (Homo sapiens (Human), UniProt P05164); test: MPO chlorination assay (APF assay); type: biochemical; conditions: potency range class
Summary of the method: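 Human MPO (200 pM) preincubated 10 min at room temperature with inhibitor and 120 mM NaCl in 100 mM KPi pH 7.4. Reaction started with APF plus 10 μM H2O2, and hypochlorite-generated fluorescein read kinetically (ex 485/em 535 nm) for 3 min. IC50 from linear-phase slopes fitted to a four-parameter equation.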

myeloperoxidase (MPO) [2] = target: T1, myeloperoxidase (MPO); test: MPO peroxidation assay (Amplex Red assay); type: biochemical; conditions: potency range class
Summary of the method: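 Human MPO at 200 pM with 40 nM H2O2 preincubated 10 min at room temperature with inhibitor in 100 mM KPi pH 7.4. Reaction started with Amplex Red mixture (200 μM Amplex Red, 10 mM H2O2); resorufin fluorescence (Ex 535, Em 590 nm) read kinetically for 15 min. IC50 fitted from slopes over 180-540 s.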

T1 sequence (P05164 49-745): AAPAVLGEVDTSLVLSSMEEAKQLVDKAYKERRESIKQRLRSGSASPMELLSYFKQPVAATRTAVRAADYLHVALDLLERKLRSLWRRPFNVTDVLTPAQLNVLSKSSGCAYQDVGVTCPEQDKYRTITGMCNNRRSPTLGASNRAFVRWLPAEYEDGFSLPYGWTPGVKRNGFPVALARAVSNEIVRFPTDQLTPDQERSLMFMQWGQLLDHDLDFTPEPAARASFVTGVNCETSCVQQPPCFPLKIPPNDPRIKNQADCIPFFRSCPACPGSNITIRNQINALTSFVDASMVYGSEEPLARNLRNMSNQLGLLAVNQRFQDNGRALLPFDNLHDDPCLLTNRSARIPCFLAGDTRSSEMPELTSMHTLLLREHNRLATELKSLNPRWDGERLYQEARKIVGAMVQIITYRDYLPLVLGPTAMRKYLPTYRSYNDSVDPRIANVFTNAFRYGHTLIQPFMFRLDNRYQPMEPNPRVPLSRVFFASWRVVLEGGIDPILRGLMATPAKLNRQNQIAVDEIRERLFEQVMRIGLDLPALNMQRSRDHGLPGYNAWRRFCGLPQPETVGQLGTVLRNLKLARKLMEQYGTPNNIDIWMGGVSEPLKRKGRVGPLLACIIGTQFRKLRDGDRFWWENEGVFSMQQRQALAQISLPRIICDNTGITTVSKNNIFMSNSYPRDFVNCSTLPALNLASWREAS

SMILES	IC50 (myeloperoxidase (MPO) [1]) [nM]	IC50 (myeloperoxidase (MPO) [2]) [nM]
Nc1cc(Cc2cnn(CC3CCCCC3)c2)c2nn[nH]c2n1 [Example 55, 7-((1-(Cyclohexylmethyl)-1H-pyrazol-4-yl)methyl)-3H-[1,2,3]triazolo[4,5-b]pyridin-5-amine]	1 to 100	1 to 100
Nc1cc(Cc2cnn(Cc3cc(Cl)cc([C@@H]4CCNC4)c3)c2)c2nn[nH]c2n1 [Example 196, 7-{[1-({3-Chloro-5-[(3S)-pyrrolidin-3-yl]phenyl}methyl)-1H-pyrazol-4-yl]methyl}-3H-[1,2,3]triazolo[4,5-b]pyridin-5-amine]	1 to 100	1 to 100
Nc1cc(Cc2cnn(Cc3cccc(C4CCNCC4)c3)c2C(F)(F)F)c2nn[nH]c2n1 [Example 285, 7-[(1-{[3-(Piperidin-4-yl)phenyl]methyl}-5-(trifluoromethyl)-1H-pyrazol-4-yl)methyl]-3H-[1,2,3]triazolo[4,5-b]pyridin-5-amine]	1 to 100	1 to 100
Cc1cccc(-n2cc(Cc3cc(N)nc4[nH]nnc34)cn2)n1 [Example 20, 7-((1-(6-Methylpyridin-2-yl)-1H-pyrazol-4-yl)methyl)-3H-[1,2,3]triazolo[4,5-b]pyridin-5-amine]	1 to 100	1 to 100
Cn1ccc(-c2cccc(Cn3cc(Cc4cc(N)nc5[nH]nnc45)cn3)c2)n1 [Example 100, 7-((1-(3-(1-Methyl-1H-pyrazol-3-yl)benzyl)-1H-pyrazol-4-yl)methyl)-3H-[1,2,3]triazolo[4,5-b]pyridin-5-amine]	1 to 100	1 to 100
Nc1cc(Cc2cnn(Cc3ccc(C(=O)NCCO)cc3)c2)c2nn[nH]c2n1 [Example 76, 4-{[4-({5-Amino-3H-[1,2,3]triazolo[4,5-b]pyridin-7-yl}methyl)-1H-pyrazol-1-yl]methyl}-N-(2-hydroxyethyl)benzamide]	101 to 999	1 to 100
CN(C)CCOc1ccc2cc(Cn3cc(Cc4cc(N)nc5[nH]nnc45)cn3)ccc2c1 [Example 69, 7-((1-((6-(2-(Dimethylamino)ethoxy)naphthalen-2-yl)methyl)-1H-pyrazol-4-yl)methyl)-3H-[1,2,3]triazolo[4,5-b]pyridin-5-amine]	1 to 100	101 to 999
Nc1cc(Cc2cnn(Cc3ccc(C(=O)NCc4cnco4)cc3)c2)c2nn[nH]c2n1 [Example 92, 4-{[4-({5-Amino-3H-[1,2,3]triazolo[4,5-b]pyridin-7-yl}methyl)-1H-pyrazol-1-yl]methyl}-N-(1,3-oxazol-5-ylmethyl)benzamide]	1000 to 10000	101 to 999

Other lines, results leading:

IC50 (myeloperoxidase (MPO) [1]) [nM]	IC50 (myeloperoxidase (MPO) [2]) [nM]	SMILES
101 to 999	1 to 100	C[C@@H]1CN(c2cc(Cn3cc(Cc4cc(N)nc5[nH]nnc45)cn3)ccc2F)C[C@H](C)N1 [Example 226, 7-{[1-({3-[cis-3,5-Dimethylpiperazin-1-yl]-4-fluorophenyl}methyl)-1H-pyrazol-4-yl]methyl}-3H-[1,2,3]triazolo[4,5-b]pyridin-5-amine]
101 to 999	1 to 100	COc1cc2ccc(Cn3cc(Cc4cc(N)nc5[nH]nnc45)cn3)cc2cn1 [Example 172, 7-((1-((3-Methoxyisoquinolin-7-yl)methyl)-1H-pyrazol-4-yl)methyl)-3H-[1,2,3]triazolo[4,5-b]pyridin-5-amine]
1 to 100	1 to 100	CC(C)(C)c1cccc(Cn2cc(Cc3cc(N)nc4[nH]nnc34)cn2)c1 [Example 134, 7-({1-[(3-tert-Butylphenyl)methyl]-1H-pyrazol-4-yl}methyl)-3H-[1,2,3]triazolo[4,5-b]pyridin-5-amine]
101 to 999	101 to 999	Nc1cc(Cc2cnn(Cc3cccc(-c4cnoc4)c3)c2)c2nn[nH]c2n1 [Example 157, 7-[(1-{[3-(1,2-Oxazol-4-yl)phenyl]methyl}-1H-pyrazol-4-yl)methyl]-3H-[1,2,3]triazolo[4,5-b]pyridin-5-amine]
1000 to 10000	1 to 100	Cc1ccc([C@@H]2CCNC2)cc1Cn1cc(Cc2cc(N)nc3[nH]nnc23)cn1 [Example 194, 7-{[1-({2-Methyl-5-[(3S)-pyrrolidin-3-yl]phenyl}methyl)-1H-pyrazol-4-yl]methyl}-3H-[1,2,3]triazolo[4,5-b]pyridin-5-amine]
